{"source": "patent US8852591B2", "about": "“Combination of BLyS and/or APRIL inhibition and immunosuppressants for treatment of autoimmune disease” (Zymogenetics, Inc., priority 2007, dated 2014)", "key": {"total serum IgG": {"tested_on": "total serum IgG", "assay": "28-day atacicept and MMF co-administration study, total serum IgG by ELISA", "type": "in vivo, CD-1 mice", "method": "(§1) Atacicept and MMF (CellCept) co-administration was tested in a 28-day study in CD-1 mice. One hundred fifty animals were distributed among four treatment groups. Group 1 received vehicle control articles used for both atacicept and MMF using the same route and regimen used for each test article. Group 2 received MMF (351 mg/kg) via daily oral gavage. Group 3 received atacicept (20 mg/kg) three times weekly via subcutaneous injection. Group 4 received atacicept (20 mg/kg, 3×/week, SC) and MMF (351 mg/kg, daily, oral), typically administered within 30 minutes of each other. […]\n(§2) Animals were sacrificed at baseline (Day-1) and Days 14, 28 (last day of treatment), 42, 56, and 112. […] Body weights were measured and recorded on Day-1 of the study and weekly thereafter, and prior to sacrifice. […] Total serum IgG, IgM, and IgA were measured using a […] necropsies were conducted on sacrificed animals for evaluation of organ weight changes, gross pathology, and histopathology.\n(§3) Total IgG levels were evaluated using a mouse IgG ELISA quantitation kit (Catalog #E90-131, Bethyl Laboratories, Montgomery, Tex.), combined with the ELISA Starter Accessory Package (Catalog #E101, Bethyl Laboratories, Montgomery, Tex.). […] The color reaction was stopped with addition of 2 M H2SO4, and the resulting absorbance (OD-450) was measured on a Spectramax 190 microplate reader. […]"}, "total serum IgM": {"tested_on": "total serum IgM", "assay": "28-day atacicept and MMF co-administration study, total serum IgM by ELISA", "type": "in vivo, CD-1 mice", "method": "as §1, §2\nas §3, with “IgM” for “IgG”, “#E90-101,” for “#E90-131,”"}, "total serum IgA": {"tested_on": "total serum IgA", "assay": "28-day atacicept and MMF co-administration study, total serum IgA by ELISA", "type": "in vivo, CD-1 mice", "method": "as §1, §2\nas §3, with “IgA” for “IgG”, “#E90-103,” for “#E90-131,”"}, "total IgG serum levels": {"tested_on": "total IgG serum levels", "assay": "Repeat and extension of atacicept and MMF combination experiment, total IgG by ELISA", "type": "in vivo, mice", "conditions": "for Numeric mean IgG: dosing until day 91, atacicept 20 mg/kg s.c. 3/week, MMF 350 mg/kg/day oral", "method": "(§4) Using similar procedures to those described in Example 3 and dosing until day 91, the results of Example 3 were replicated and extended in time to days 35, 91, 126, and 182.\n(§5) Group 1 received both the vehicle for ATACICEPT and the vehicle for CellCept at the same treatment frequency as the treated groups. Group 2 was treated with only ATACICEPT\n(§6) Group 3 received only CellCept. Group 4 received CellCept oral gavage followed by ATACICEPT s.c. injection within a period of approximately 30 minutes. The day of the first treatment was considered day 1 of the study. Throughout the study period clinical observations, hematological and blood chemistry tests, toxicokinetics and additional investigations were carried out.\n(§7) Additional satellite groups of animals were used for total immunoglobulin determinations and antibody determination. They were treated and weighed according to the same procedures as the main study.\n(§8) Blood samples were collected from 3 animals/sex/group (in progressive numerical order) for the determination of IgG, IgM and IgA serum levels at the following times:\n(§9) from animals of groups 9, 10, 11 and 12:\n(§10) • on day 34 of the 5-week treatment period • on day 90 of the 13-week treatment period • on day 34 of the 5-week recovery period • on day 90 of the 13-week recovery period\n(§11) The blood (at least 0.8-1 mL) was collected at sacrifice from the abdominal aorta of mice after they have been completely anaesthetized with diethyl ether.\n(§12) Samples were collected in tubes without any anticoagulant and allowed to clot for about 1 hour at room temperature. The clot were spun down by centrifugation at 3000 rpm at +4° C. for 15 minutes. Blood cells were discarded and the serum banked in 100 μL aliquots (four aliquots for every single analysis) and stored at −80° C. until analysis. Total IgG, IgM and IgA levels were determined by validated ELISA methods."}, "total IgM serum levels": {"tested_on": "total IgM serum levels", "assay": "Repeat and extension of atacicept and MMF combination experiment, total IgM by ELISA", "type": "in vivo, mice", "conditions": "for Numeric mean IgM: dosing until day 91", "method": "as §4, §5, §6, §7, §8, §9, §10, §11, §12"}, "total IgA serum levels": {"tested_on": "total IgA serum levels", "assay": "Repeat and extension of atacicept and MMF combination experiment, total IgA by ELISA", "type": "in vivo, mice", "conditions": "for Numeric mean IgA: dosing until day 91", "method": "as §4, §5, §6, §7, §8, §9, §10, §11, §12"}, "[1]": {"conditions": "Day 28 (last day of treatment), MMF 351 mg/kg daily oral, atacicept 20 mg/kg 3x/week SC"}, "[2]": {"conditions": "Day 28, positive = reduction versus vehicle"}}}
{"molecule": "COc1c(C)c2c(c(O)c1C/C=C(\\C)CCC(=O)OCCN1CCOCC1)C(=O)OC2", "note": "[MMF, mycophenolate mofetil]", "values": [{"measurement": "Numeric mean IgG", "setting": "total serum IgG; [1]", "result": 185, "unit": "µg/mL"}, {"measurement": "Difference from Vehicle, mean IgG (vehicle minus treatment)", "setting": "total serum IgG; [2]", "result": -6, "unit": "µg/mL"}, {"measurement": "Numeric mean IgM", "setting": "total serum IgM; [1]", "result": 317, "unit": "µg/mL"}, {"measurement": "Difference from Vehicle, mean IgM (vehicle minus treatment)", "setting": "total serum IgM; [2]", "result": -79, "unit": "µg/mL"}, {"measurement": "Numeric mean IgA", "setting": "total serum IgA; [1]", "result": 506, "unit": "µg/mL"}, {"measurement": "Difference from Vehicle, mean IgA (vehicle minus treatment)", "setting": "total serum IgA; [2]", "result": -8, "unit": "µg/mL"}, {"measurement": "Difference from Vehicle, mean IgG (vehicle minus treatment)", "setting": "total IgG serum levels; Sample Day 35", "result": -420.43, "unit": "µg/mL"}, {"measurement": "Numeric mean IgG", "setting": "total IgG serum levels; Sample Day 35", "result": 940.13, "unit": "µg/mL"}, {"measurement": "Difference from Vehicle, mean IgG (vehicle minus treatment)", "setting": "total IgG serum levels; Sample Day 91", "result": -495.86, "unit": "µg/mL"}, {"measurement": "Numeric mean IgG", "setting": "total IgG serum levels; Sample Day 91", "result": 1192.87, "unit": "µg/mL"}, {"measurement": "Difference from Vehicle, mean IgM (vehicle minus treatment)", "setting": "total IgM serum levels; Sample Day 35", "result": -35.64, "unit": "µg/mL"}, {"measurement": "Numeric mean IgM", "setting": "total IgM serum levels; Sample Day 35, atacicept 20 mg/kg s.c. 3/week, MMF 350 mg/kg/day oral", "result": 141.34, "unit": "µg/mL"}, {"measurement": "Difference from Vehicle, mean IgM (vehicle minus treatment)", "setting": "total IgM serum levels; Sample Day 182", "result": 20.18, "unit": "µg/mL"}, {"measurement": "Numeric mean IgM", "setting": "total IgM serum levels; Sample Day 182 (recovery period)", "result": 53.77, "unit": "µg/mL"}, {"measurement": "Difference from Vehicle, mean IgA (vehicle minus treatment)", "setting": "total IgA serum levels; Sample Day 91", "result": -840.19, "unit": "µg/mL"}, {"measurement": "Numeric mean IgA", "setting": "total IgA serum levels; Sample Day 91, atacicept 20 mg/kg s.c. 3/week, MMF 350 mg/kg/day oral", "result": 1764.55, "unit": "µg/mL"}, {"measurement": "Difference from Vehicle, mean IgA (vehicle minus treatment)", "setting": "total IgA serum levels; Sample Day 126", "result": -353.57, "unit": "µg/mL"}, {"measurement": "Numeric mean IgA", "setting": "total IgA serum levels; Sample Day 126 (recovery period)", "result": 1467.05, "unit": "µg/mL"}]}
